Laboratory results as given in publication PMC7027498, “A small molecule chaperone rescues the stability and activity of a cancer‐associated variant of NAD(P)H:quinone oxidoreductase 1 in vitro” (Febs Letters, 2019).

How the values were obtained:
[1] = target: T1, NQO1 WT (NAD(P)H:quinone oxidoreductase 1) (Homo sapiens, UniProt P15559); assay: ThermoFAD thermal shift; assay type: binding; details: 2 mM BPPSA, 50 mM HEPES pH 7.0
T1 construct: codon-optimised gene in pET28a, E. coli; FAD-containing homodimer

[2] = target: T2, NQO1 WT (NAD(P)H:quinone oxidoreductase 1) (Homo sapiens, UniProt P15559, P187S); assay: NADH-menadione reductase assay, absorbance at […] nm; assay type: biochemical
T2 construct: codon-optimised gene in pET28a, E. coli; FAD-containing homodimer

[3] = target: T2, NQO1 WT (NAD(P)H:quinone oxidoreductase 1); assay: ThermoFAD thermal shift; assay type: binding; details: 2 mM BPPSA, 50 mM HEPES pH 7.0
[4] = target: T1, NQO1 WT (NAD(P)H:quinone oxidoreductase 1); assay: NADH-menadione reductase assay, absorbance at […] nm; assay type: biochemical
[5] = target: T1, NQO1 WT (NAD(P)H:quinone oxidoreductase 1); assay: isothermal titration calorimetry; assay type: binding; details: read-out: dissociation constant
From the text: (§1) isothermal titration calorimetry on NQO1 WT (NAD(P)H:quinone oxidoreductase 1) | dissociation constants for the binding of BPPSA to the wild‐type and P187S variant

[6] = target: T2, NQO1 WT (NAD(P)H:quinone oxidoreductase 1); assay: isothermal titration calorimetry; assay type: binding; details: read-out: dissociation constant
From the text: as §1

[7] = target: T1, NQO1 WT (NAD(P)H:quinone oxidoreductase 1); assay: crystal structure, […] Å; assay type: binding; details: co-crystal with BPPSA; FAD in all four chains

| increase in melting temperature [1] | IC50 [2] | increase in melting temperature [3] | IC50 [4] | Kd [5] | Kd [6] | Compound | crystal structure, 2.76 Å [7] |
| --- | --- | --- | --- | --- | --- | --- | --- |
| 1 °C | 26.2 ± 1.2 µM | 2.5 °C | 8.6 ± 1.1 µM | 7.95 ± 0.8 µM | 20 ± 0.41 µM | O=S(=O)(Nc1ccccc1Br)N1CCCC1 [BPPSA, N‐(2‐bromophenyl)pyrrolidine‐1‐sulfonamide] |  |
|  |  |  |  |  |  | Cc1cc2nc3c(=O)[nH]c(=O)nc-3n(C[C@H](O)[C@H](O)[C@H](O)COP(=O)(O)OP(=O)(O)OC[C@H]3O[C@@H](n4cnc5c(N)ncnc54)[C@H](O)[C@@H]3O)c2cc1C [FAD] | Clear residual electron density was observed for FAD bound to each of the four chains |
